Patent US20260041089A1, “PLANT BIOSTIMULANT AND METHODS OF MAKING AND USING SAME” (Solugen, Inc., priority 2022, published 2026)
Values joined by “and” are separate entries in the source; they are usually repeats but may differ in a detail not shown here. Identical values can stand only once.

Tested on: microgreens
Assay: Radish microgreens growth under controlled pH 5, 1% solutions (Example 2)
Assay type: in vivo
Conditions: for germination rate / root hair development: Day 2; for Plant dry weight: harvest Day 8, dried 3 days
Description: The biostimulant effect of a PBC under controlled pH and composition conditions was investigated. Particularly, a second batch of testing was performed to verify that biostimulant effect observed in Example 1 was not an artifact of differing pH or composition. In this set, samples having a controlled yet differing compositions were compared. The first sample set comprised the sugar sucrose while the second sample comprised citric acid. Citric acid was reported to promote seed germination, all under the same pH. Therefore, solutions of 1% citric acid, sucrose, and a PBC were prepared and adjusted to a pH of 5. Two pots were filled with 150 g of each solution. About 200 seeds were placed on top of each soaked growing mats. This second batch was left indoors at room temperature for 8 days.
Microgreens were harvested on Day 8. They were then dried for 3 days, and the dry weights were recorded.

[1] = 1% solution, pH 5, harvest Day 8

SMILES | germination rate (1% solution, pH 5) [%] | Length of Root [1] | Plant dry weight (1% solution, pH 5) | overall growth at harvest (Table 2 summary) (1 wt. %, Day 8) | root hair development | growth observation (Day 4) | growth observation (Day 7) | Length of Stem [1] | leaf development (Day 3)
O=C(O)CC(O)(CC(=O)O)C(=O)O [Citric Acid, citric acid] | 100 | 0.82 ± 0.25 cm and 0.71 ± 0.22 cm | 1.99 g and 1.81 g | least overall growth in every parameter considered | minimal root hair development | stunted growth with no stem or root hair development | no stem development and poor overall growth |  | 
OC[C@H]1O[C@@](CO)(O[C@H]2O[C@H](CO)[C@@H](O)[C@H](O)[C@H]2O)[C@@H](O)[C@@H]1O [Sucrose, sucrose] | 99 | 2.61 ± 0.43 cm and 2.49 ± 1.0 cm | 3.0 g and 2.29 g |  | most root hair development |  | healthy leaf growth | 3.86 ± 1.10 cm and 4.27 ± 1.03 cm | most leaf development
